Reference: patent publication US6184217A (Cephalon, Inc., priority 1997, dated 2001)

Tested on: GABA-ergic neurons in the nucleus basalis magnocellularis
Test: Ibotenic acid lesion: glutamic acid decarboxylase-expressing (GABA-ergic) neurons in nbm
Assay type: in vivo, Sprague-Dawley rats
Experimental: Compound A was tested for its ability to prevent depletion (e.g., enhance the survival) of GABA-ergic neurons in the nucleus basalis magnocellularis, using the well-established ibotenic acid lesion mode. Ibotenic acid, an excitotoxin, is known to reduce numbers of GABA-expressing neurons in the nbm region (Lindefors et al., Neurosci. Lett., 135:262-264, 1992; Shaugnessy et al., Brain Res., 637:15-26, 1994). […] The rats were then dosed with Compound A (0.03 mg/kg) via subcutaneous injection beginning 18 hours after the lesion, and continuing q.o.d. until 18 days post-lesion. […] The numbers of neurons expressing glutamic acid decarboxylase were then counted throughout the rostral-caudal extent of the nucleus basalis magnocellularis, in a region where glutamic acid decarboxylase-expressing neurons of the nbm are easily distinguished from glutamic acid decarboxylase-expressing neurons in adjacent structures (white matter medial and ventral to the globus pallidus). The results were expressed as percent glutamic acid decarboxylase-expressing neurons on the lesioned side relative to the number on the opposite, unlesioned side. The results were also calculated separately for the rostral nbm, mid-nmb, and caudal nbm.

## CCSCc1ccc2c(c1)c1c3c(c4c5cc(CSCC)ccc5n5c4c1n2C1CC(O)(C(=O)OC)C5(C)O1)CNC3=O (centres unmarked) [Compound A]
mid-nbm or caudal nbm, 0.03 mg/kg s.c. q.o.d.
  glutamic acid decarboxylase-expressing neurons vs vehicle-only animals: No statistically significant differences
Rostral nbm, 0.03 mg/kg s.c. q.o.d. until 18 days post-lesion, mean, s.e.m., p<0.05 vs vehicle (34 ± 19)
  glutamic acid decarboxylase-expressing neurons on lesioned side relative to unlesioned side: 78 (±16 s.c.m.) percent
